Assays:
MelBSt D59C = target: T1, MelBSt D59C (Salmonella typhimurium, UniProt P30878, D59C); test: [3H]Melibiose transport time course with DW2 intact cells expressing MelBSt D59C; type: cell-based; conditions: 0.4 mM [3H]melibiose
T1 construct: Cys scanning mutagenesis for the full-length MelBSt; expressed in transfected cells; host or cells: E. coli DW2 (melA+, melB-, lacZ-Y-)
Procedure: (§1) Fig. 1 Functional characterizations. a [^3H] Melibiose transport time course with intact cells. E. coli DW2 strain (melB^−, lacZ^−Y^−) expressed with the WT, D59C, or D59A MelBSt mutants were subjected to [^3H]melibiose active transport assay at 0.4 mM and 10 mCi/mmol in the presence of 20 mM or 100 mM NaCl or LiCl by a fast filtration method. Inset, melibiose fermentation assay. Transformants with DW2 strain were plated on MacConkey agar plates containing 30 mM melibiose as the sole carbohydrate source and pH sensor neutral red, and incubated at 37 °C for 16–18 h before imaging. Number of tests = 3, from different batch of cells or duplicate measurements from same batch of sample. b Ligand binding by Trp→dansyl galactoside (D^2G) FRET assay. Purified proteins at 1 μM concentration in 20 mM Tris-HCl, pH 7.5, 100 mM CholCl, 10% glycerol, and 0.03% UDM were subjected to steady-state fluorescence measurements as described in Methods. On the time-trace, 1.8 μL of 1 mM D^2G at 10 μM was added into 180 μL of protein solutions at 1-min point, followed by supplying 10 μL of 5 mM DDMB or 5 mM α-NPG to displace the bound D^2G. For testing Na^+ or Li^+ binding, they are added into the solution before displacement with the second sugar. The structure of DDMB or α-NPG is shown in a chair form, and the carbon positions are labeled. Glycosidic bonds are indicated by arrows. Both are α-galactosides containing a substituent at the anomeric carbon-1. The data were from duplicate measurements.
(§2) The overexpression of MelBSt was carried out in the E. coli DW2 strain (melA^+, melB^−, and lacZ^−Y^−) from a constitutive expression plasmid pK95ΔAH/MelBSt/CHis10[9],[28],[33]. The D59C or D59A mutant with Cys or Ala at the position 59, respectively, was constructed previously[9] or in this study by QuikChange Site-Directed Mutagenesis kit and confirmed by DNA sequencing analysis. E. coli DW2 cells containing a given plasmid were grown in Luria-Bertani (LB) broth (5 g yeast extract and 10 g tryptone per liter with 171 mM NaCl) with 100 mg/L of ampicillin in a 37 °C shaker. The overnight cultures were diluted by 5% with LB broth supplemented with 0.5% glycerol and 100 mg/L of ampicillin, and constitutive overexpression was obtained by shaking at 30 °C for another 5 h.
(§3) E. coli DW2 cells expressing MelBSt were washed with 100 mM KPi, pH 7.5, to remove Na^+ contamination as described previously. The cell pellets were resuspended with the assay buffer (100 mM KPi, pH 7.5, 10 mM MgSO4) and adjusted to A420 of 10 (∼0.7 mg protein/ml). Using a fast filtration, transport time course at 0.4 mM melibiose (at specific activity of 10 mCi/mmol) was carried out in the absence or presence of NaCl or LiCl at 20 mM or 100 mM, respectively, and intracellular melibiose was determined as described previously.

MelBSt D59A = target: T2, MelBSt D59A (Salmonella typhimurium, UniProt P30878, D59A); test: [3H]Melibiose transport time course with DW2 intact cells expressing MelBSt D59A; type: cell-based; conditions: 0.4 mM [3H]melibiose
T2 construct: Cys scanning mutagenesis for the full-length MelBSt; expressed in transfected cells; host or cells: E. coli DW2 (melA+, melB-, lacZ-Y-)
Procedure: as §1, §2, §3

T2 sequence (P30878 whole entry D59A): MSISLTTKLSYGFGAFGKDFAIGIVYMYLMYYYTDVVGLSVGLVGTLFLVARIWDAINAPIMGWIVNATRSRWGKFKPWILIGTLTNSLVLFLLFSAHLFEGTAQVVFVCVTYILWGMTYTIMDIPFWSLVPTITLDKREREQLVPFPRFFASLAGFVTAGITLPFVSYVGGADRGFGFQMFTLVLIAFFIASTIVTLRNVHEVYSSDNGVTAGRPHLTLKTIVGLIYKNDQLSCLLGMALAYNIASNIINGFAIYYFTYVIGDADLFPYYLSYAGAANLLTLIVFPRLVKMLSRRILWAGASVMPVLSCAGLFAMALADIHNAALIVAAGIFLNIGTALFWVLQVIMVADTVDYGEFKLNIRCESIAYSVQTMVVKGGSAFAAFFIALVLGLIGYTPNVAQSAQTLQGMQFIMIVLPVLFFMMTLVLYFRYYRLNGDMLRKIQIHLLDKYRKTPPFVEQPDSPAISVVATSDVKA
T1 sequence (P30878 whole entry D59C): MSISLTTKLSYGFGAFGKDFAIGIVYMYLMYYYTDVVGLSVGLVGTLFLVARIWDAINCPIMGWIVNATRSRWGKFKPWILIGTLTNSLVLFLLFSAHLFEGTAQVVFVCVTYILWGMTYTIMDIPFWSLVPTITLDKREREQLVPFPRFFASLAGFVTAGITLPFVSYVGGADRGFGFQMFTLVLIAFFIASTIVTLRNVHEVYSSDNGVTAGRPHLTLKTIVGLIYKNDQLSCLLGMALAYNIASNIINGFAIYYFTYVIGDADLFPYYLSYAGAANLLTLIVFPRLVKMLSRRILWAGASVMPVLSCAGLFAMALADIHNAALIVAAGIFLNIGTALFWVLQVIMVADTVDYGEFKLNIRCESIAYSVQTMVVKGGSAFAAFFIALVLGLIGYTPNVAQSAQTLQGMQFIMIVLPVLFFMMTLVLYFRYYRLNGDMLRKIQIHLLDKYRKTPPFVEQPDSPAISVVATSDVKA

Work on `OC[C@H]1O[C@H](OCC2O[C@@H](O)[C@H](O)[C@@H](O)[C@@H]2O)[C@H](O)[C@@H](O)[C@H]1O` (stereo partly drawn) [Melibiose] yielded a Melibiose transport (MelBSt D59C; H+, Time 0.08) of 2.90, a Melibiose transport (MelBSt D59C; H+, Time 0.17) of 4.95 and a Melibiose transport (MelBSt D59C; H+, Time 0.50) of 7.21. The Melibiose transport (MelBSt D59C; H+, Time 1.00) was 7.87, the Melibiose transport (MelBSt D59C; H+, Time 2.00) was 9.68 and the Melibiose transport (MelBSt D59C; H+, Time 5.00) was 7.94. It also gave a Melibiose transport (MelBSt D59C; H+, Time 10.00) of 6.75, a Melibiose transport (MelBSt D59C; H+, Time 30.00) of 4.22 and a Melibiose transport (MelBSt D59C; Li+, 20 mM, Time 0.08) of 4.23. The Melibiose transport (MelBSt D59C; Li+, 20 mM, Time 0.17) was 7.46, the Melibiose transport (MelBSt D59C; Li+, 20 mM, Time 0.50) was 9.40 and the Melibiose transport (MelBSt D59C; Li+, 20 mM, Time 1.00) was 8.14. For the same molecule, the Melibiose transport (MelBSt D59C; Li+, 20 mM, Time 2.00) was 8.43, the Melibiose transport (MelBSt D59C; Li+, 20 mM, Time 5.00) was 9.92 and the Melibiose transport (MelBSt D59C; Li+, 20 mM, Time 10.00) was 9.02. The Melibiose transport (MelBSt D59C; Li+, 20 mM, Time 30.00) was 7.58, the Melibiose transport (MelBSt D59C; Li+, 100 mM, Time 0.08) was 5.34 and the Melibiose transport (MelBSt D59C; Li+, 100 mM, Time 0.17) was 7.70. For the same molecule, the Melibiose transport (MelBSt D59C; Li+, 100 mM, Time 0.50) was 7.46, the Melibiose transport (MelBSt D59C; Li+, 100 mM, Time 1.00) was 5.16 and the Melibiose transport (MelBSt D59C; Li+, 100 mM, Time 2.00) was 7.88. The Melibiose transport (MelBSt D59C; Li+, 100 mM, Time 5.00) was 5.54, the Melibiose transport (MelBSt D59C; Li+, 100 mM, Time 10.00) was 7.56 and the Melibiose transport (MelBSt D59C; Li+, 100 mM, Time 30.00) was 11.83. It also gave a Melibiose transport (MelBSt D59C; Na+, 20 mM, Time 0.08) of 4.91, a Melibiose transport (MelBSt D59C; Na+, 20 mM, Time 0.17) of 5.04 and a Melibiose transport (MelBSt D59C; Na+, 20 mM, Time 0.50) of 6.31. It also gave a Melibiose transport (MelBSt D59C; Na+, 20 mM, Time 1.00) of 7.41, a Melibiose transport (MelBSt D59C; Na+, 20 mM, Time 2.00) of 16.16 and a Melibiose transport (MelBSt D59C; Na+, 20 mM, Time 5.00) of 8.09. The Melibiose transport (MelBSt D59C; Na+, 20 mM, Time 10.00) was 6.24, the Melibiose transport (MelBSt D59C; Na+, 20 mM, Time 30.00) was 9.30 and the Melibiose transport (MelBSt D59C; Na+, 100 mM, Time 0.08) was 0.60. It also gave a Melibiose transport (MelBSt D59C; Na+, 100 mM, Time 0.17) of 4.32, a Melibiose transport (MelBSt D59C; Na+, 100 mM, Time 0.50) of 10.86 and a Melibiose transport (MelBSt D59C; Na+, 100 mM, Time 1.00) of 12.92. For the same molecule, the Melibiose transport (MelBSt D59C; Na+, 100 mM, Time 2.00) was 6.61, the Melibiose transport (MelBSt D59C; Na+, 100 mM, Time 5.00) was 1.42 and the Melibiose transport (MelBSt D59C; Na+, 100 mM, Time 10.00) was 5.04. The Melibiose transport (MelBSt D59C; Na+, 100 mM, Time 30.00) was 9.00, the Melibiose transport (MelBSt D59A; H+, Time 0.17) was 9.09 and the Melibiose transport (MelBSt D59A; H+, Time 0.50) was 8.49. The Melibiose transport (MelBSt D59A; H+, Time 1.00) was 2.84, the Melibiose transport (MelBSt D59A; H+, Time 2.00) was 1.86 and the Melibiose transport (MelBSt D59A; H+, Time 5.00) was 1.70. For the same molecule, the Melibiose transport (MelBSt D59A; H+, Time 10.00) was 1.53, the Melibiose transport (MelBSt D59A; H+, Time 30.00) was 1.58 and the Melibiose transport (MelBSt D59A; Li+, 20 mM, Time 0.17) was 0.82. For the same molecule, the Melibiose transport (MelBSt D59A; Li+, 20 mM, Time 0.50) was 1.81, the Melibiose transport (MelBSt D59A; Li+, 20 mM, Time 1.00) was 0.66 and the Melibiose transport (MelBSt D59A; Li+, 20 mM, Time 2.00) was 4.29. The Melibiose transport (MelBSt D59A; Li+, 20 mM, Time 5.00) was 3.59, the Melibiose transport (MelBSt D59A; Li+, 20 mM, Time 10.00) was 1.72 and the Melibiose transport (MelBSt D59A; Li+, 20 mM, Time 30.00) was 4.17. The Melibiose transport (MelBSt D59A; Na+, 20 mM, Time 0.17) was 4.09, the Melibiose transport (MelBSt D59A; Na+, 20 mM, Time 0.50) was 2.70 and the Melibiose transport (MelBSt D59A; Na+, 20 mM, Time 1.00) was 2.54. The Melibiose transport (MelBSt D59A; Na+, 20 mM, Time 2.00) was 5.43, the Melibiose transport (MelBSt D59A; Na+, 20 mM, Time 5.00) was 1.63 and the Melibiose transport (MelBSt D59A; Na+, 20 mM, Time 10.00) was 1.16.

Source: PMC8329300, “X-ray crystallography reveals molecular recognition mechanism for sugar binding in a melibiose transporter MelB” (Communications Biology, 2021)
